In article PMC6271218, “Pharmacokinetics, Tissue Distribution and Excretion of Verticinone from F. hupehensis in Rats” (Molecules, 2014):
Where two headings read alike, the source gives them in different places.

Experiments:
[1] = Metabolic rate in rat liver microsomes; format: in vitro ADME
[2] = Excretion study (urine, bile, feces) after oral dose; format: in vivo, SD rats; conditions: for dose excreted: SD, rat, faeces, oral, read-out: recovery from feces; for dose excreted / cumulative excreted fraction in bile (% of administered dose) / cumulative excreted fraction in feces (% of administered dose) / unchanged verticinone excreted from urine and feces / cumulative excreted fraction in urine (% of administered dose): i.g. 2 mg/kg; for dose excreted as unchanged parent compound: 2 mg/kg oral dose; for cumulative excreted fraction in bile (% of administered dose): bile 24 h; for cumulative excreted fraction in feces (% of administered dose): feces 36 h; for cumulative excreted fraction in urine (% of administered dose): unchanged verticinone
Experimental: Ten rats were housed separately in metabolic cages and received a single oral dose of 2 mg/kg verticinone. Urine was collected at 0, 4, 8, 12, and 24 h for female rats and at 0, 4, 8, 12, 24, 36 h for male rats. Feces were collected at 0, 12, 24, and 36 h for female rats and at 0, 8, 12, 24, 36 h for male rats. The volume of urine samples was measured before storage at −20 °C. Feces were weighted and homogenized in 5 volumes (v/w) of 50% methanol/50% water and stored at −20 °C until analysis. In addition, ten rats were anesthetized with ether and then the bile ducts were cannulated with polyethylene tube. The rats also received a single oral dose of 2 mg/kg verticinone. Bile was collected at 0, 2, 4, 6, 8, 12, and 24 h after dosing and stored at −20 °C until analysis. Verticinone was extracted from urine, feces and bile samples based on the method described for tissue samples.
(§1) The quantification of verticinone was performed by a LC-MS method based on the previously reported method with slight modifications. The liquid chromatography system consisted of a model 2010 chromatograph (Shimadzu, Kyoto, Japan) equipped with a Shim-Pack VP-ODS C18 column (150 mm × 2.0 mm, 5 μm). A Shimadzu 2010 mass spectrometer (Q-array-Octapole-Quadrupole mass analyzer) equipped with an electrospray ionization interface was used for MS detection. The mobile phase consisted of (A) distilled water and (B) methanol, and the flow rate was 0.2 mL/min. Chromatography separation was achieved using a gradient elution program, as follows: 0.03→6.0 min, B% 15→85; 6.0→7.0 min, B% 85→85; 7.0→8.0 min, B% 85→15; 8.0–12.0 min, B% 15→15. The column and autosampler tray temperature were kept constant at 35 °C and 20 °C, respectively. For the determination of verticinone, the positive mode was selected, along with the conditions as follows.
(§2) CDL voltage […], probe voltage 4.5 kV, CDL temperature 250 °C, block temperature 200 °C, gas flow 1.5 L/min. Hupehenine was used as the internal standard (IS). Both verticinone and IS were detected using selected ion monitoring (SIM) at m/z 430.25 for verticinone and m/z 416.30 for hupehenine (IS), with a dwell time of 200 ms. Blank plasma, tissue homogenate, urine, feces homogenate and bile were used to prepare the corresponding calibration curves to avoid different matrix effects.

[3] = Tissue distribution study after oral administration; format: in vivo, rats; conditions: for rank order of AUC values for individual tissues: i.g. 2 mg/kg
Experimental: A single 2 mg/kg oral dose of verticinone was administrated to thirty rats (15 male and 15 female). Rats were sacrificed and tissues (heart, liver, spleen, lung, kidney, brain, stomach, intestine, skin, muscle, fat and gonads) were promptly removed at 0.25, 0.58 and 6 h (n = 10, with 5 male and 5 female) after dosing and washed with saline. Each tissue sample (0.2 g) was homogenized in 5 volumes (v/w) of distilled water. Tissue homogenates were stored at −20 °C until analysis. Verticinone was extracted from tissue homogenate based on the method described for plasma with slight modifications. The evaporated residue was reconstituted in 200 μL methanol, vortexed, followed by centrifugation at 15,000 rpm twice. An aliquot of 10 μL was injected into the LC-MS system for analysis.
as §1
as §2, with “Blank plasma, tissue homogenate, urine, feces homogenate and bile were used to prepare the corresponding calibration curves to avoid different matrix effects.” left out

[4] = Plasma pharmacokinetics after i.v. administration; format: in vivo, SD rats; conditions: for AUC(0-inf) / AUC(0-t) / MRT last: SD, rat, plasma, iv; for AUC(0-inf) / AUC(0-t) / MRT last / Vz/F: i.v. 0.4 mg/kg; for MRT last: read-out: MRT0–t
Experimental: Pharmacokinetic studies of verticinone after intravenous (i.v.) and intragastrical (i.g.) administration to rats were designed to determine pharmacokinetic parameters and absolute bioavailability. For i.g administration, verticinone was suspended in 0.5% carboxymethyl cellulose sodium (CMC-Na) to final concentrations of 0.2, 0.4 and 0.8 mg/mL. Verticinone was dissolved in 20% ethanol/80% water to final concentration of 0.08 mg/mL for i.v. administration. For the i.v. group, five male and five female rats received a single dose of 0.4 mg/kg. Blood samples (0.25 mL) were obtained at 0, 4, 15, 30, 45, 60, 120, 240, 360, 480, 600 and 720 min after injection. For the single- i.g. group, fifteen male and fifteen female rats were divided into three groups, and each group received a single oral dose of 1, 2 and 4 mg/kg of verticinone, respectively. In addition, another five male and five female rats received multiple oral doses of 4 mg/kg/day, given as 2 mg/kg doses twice a day (one dose in the morning and the second dose 12 h later) for 7 days, then a single oral dose of 2 mg/kg on the eighth day. Blood samples (0.25 mL) were obtained at 0, 5, 15, 30, 45, 60, 90, 120, 240, 360, 480 and 720 min for male rats and at 0, 5, 10, 20, 30, 45, 60, 120, 240, 360, 480 and 720 min for female rats after oral administration (the eighth day for multiple-dose group). Blood samples were then centrifuged at 4000 rpm for 10 min, and the plasma was collected. All plasma samples were frozen and stored at −20 °C until analysis. Verticinone was isolated from plasma by liquid-liquid extraction according to our previously reported procedure.
as §1, §2
The pharmacokinetic parameters were calculated by the DAS 2.0 software (Chinese Pharmacological Association, Beijing, China) using a standard non-compartmental method. The Cmax and Tmax were determined from the observed data. The elimination rate constant (ke) was calculated by log-linear regression of verticinone concentrations during the terminal elimination phase and the half-life (t1/2) was calculated as 0.693/ke. The AUC0–t was calculated by the linear trapezoidal method. The AUC0–∞ was calculated as the sum of AUC0–t and the extrapolated part determined by Clast/ke. The total clearance (CL) was calculated as dose/AUC0–∞. The absolute bioavailability (F) was calculated by the following equation: F = [(AUCi.g./AUCi.v.) × (Dosei.v./Dosei.g.)] × 100%. The results were expressed as mean ± SD. Statistical analyses were performed using an unpaired Student’s t-test.

[5] = parameters: method as in PMID 19417735; conditions: mice; cited from earlier work

## C[C@H]1CC[C@@H]2N(C1)C[C@H]1[C@@H]3C[C@H]4[C@@H](CC(=O)[C@H]5C[C@@H](O)CC[C@@]54C)[C@@H]3CC[C@@H]1[C@]2(C)O [verticinone, Verticinone]
[1]; female rats
  metabolic rate in rat liver microsomes: 3.76 × 10^−3 nmol/min/mg protein
[1]; females vs males
  metabolic rate in rat liver microsomes, females faster than males: about 1.7 times
[1]; male rats
  metabolic rate in rat liver microsomes: 2.18 × 10^−3 nmol/min/mg protein
[2]; female rats
  dose excreted: < 1%
  dose excreted as unchanged parent compound: less than 1%
  cumulative excreted fraction in bile (% of administered dose): 0.02% ± 0.01
  cumulative excreted fraction in feces (% of administered dose): 0.42% ± 0.29
  unchanged verticinone excreted from urine and feces: 0.6%
[2]; male rats
  dose excreted: < 1%
  dose excreted as unchanged parent compound: less than 4%
  cumulative excreted fraction in bile (% of administered dose): 0.31% ± 0.21
  cumulative excreted fraction in feces (% of administered dose): 0.92% ± 0.53
  unchanged verticinone excreted from urine and feces: about 3.4%
[2]; female rats, urine 24 h
  cumulative excreted fraction in urine (% of administered dose): 0.23% ± 0.05
[2]; male rats, urine 36 h
  cumulative excreted fraction in urine (% of administered dose): 2.50% ± 0.98
[3]; female rats
  rank order of AUC values for individual tissues: intestine > stomach > liver > kidney > spleen > lung > gonad > heart > muscle > skin > fat > brain
[3]; male rats
  rank order of AUC values for individual tissues: intestine > stomach > liver > kidney > spleen > lung > heart > gonad > muscle > skin > fat > brain
[3]; oral 2 mg/kg, rats, 15 min, 35 min and 6 h
  concentration found in the brain: very little was found in the brain
[4]; female rats
  AUC(0-inf): 0.0989 ± 0.0358 µg·h/mL
  AUC(0-t): 0.0656 ± 0.00703 µg·h/mL
  MRT last: 2.04 ± 0.34 h
  Vz/F: 82.5 ± 70.3 L/kg
[4]; male rats
  AUC(0-inf): 0.168 ± 0.023 µg·h/mL
  AUC(0-t): 0.16 ± 0.0202 µg·h/mL
  MRT last: 2.37 ± 0.14 h
  Vz/F: 10.9 ± 1.56 L/kg
[4]; i.v. dose 0.4 mg/kg
  Exposure, fold higher in male rats than in female rats: 2.4 fold
[5]
  addictive effect: no addictive effect
